From US20140241988A1, “METHODS AND COMPOSITIONS FOR TREATING ATRIAL FIBRILLATION” (The Regents of The University of Michigan, priority 2013, published 2014)
“Also recorded” adds a separate entry of the source.

How the values were obtained:
[1] = test system: adult rat ventricular myocytes; assay: Whole-cell patch clamp, transient outward potassium current (Ito); assay type: cell-based; settings: 72 hr
From the text: The extracellular solution for transient outward potassium current (Ito) contained (in mM): 136 NaCl, 4 KCl, 1.8 CaCl2, 2 MgCl2, 10 HEPES, 0.03 tetrodotoxin, 0.01 nifedipine, and 14 glucose, pH 7.35. The pipette solution contained (in mM):135 KCl, 1 MgCl2, 10 EGTA, 10 HEPES, 5 glucose, pH 7.2. Voltage-gated outward K+ currents were evoked during 5-s depolarizing voltage steps to potentials between −40 and +60 mV from a holding potential of −70 mV; voltage steps were presented in 10 mV increments at 15 s intervals
(§1) In all experiments, cells were exposed to one of the following for 72 hrs prior to the experiment: control medium, FCM or TGF-β1.

[2] = test system: adult rat ventricular myocytes; assay: Current clamp action potential recording; assay type: cell-based
Method: Action potentials were recorded from individual myocytes using the current clamp mode of the MultiClamp 700B amplifier after gigaseal formation and patch break. Stimulus pulses (1-2 ms duration) were generated using a World Precision Instruments DS8000 stimulator (Sarasota, Fla.). The bath solution contained (in mM): NaCl: 148, KCl: 5.4, MgCl2: 1, CaCl2 1.8, NaH2PO4: 0.4, HEPES: 15, Glucose: 5.5, pH 7.4 with NaOH. The pipette solution contained (in mM), KCl: 20, K-aspartate: 90, KH2PO4: 10, EDTA: 5.0, K2ATP: 1.9, HEPES: 5.0 and Mg2+ 7.9; pH 7.2 (KOH)
as §1

[3] = test system: adult rat ventricular myocytes; assay: Whole-cell patch clamp, peak inward sodium current (INa); assay type: cell-based
Method: (§2) Cell Treatment: Isolated adult rat cardiac myocytes were treated with FCM or TGF-β1 (R and D systems, Minneapolis, Minn.) for 3 days in serum free medium. For PI3K pathway inhibition cells were pretreated (30 min) with 10 μM […] (Cayman Chemicals, Ann Arbor) before the treatment with TGF-β1. mRNA analysis by quantitative PCR (qPCR): Cardiac myocytes were washed with PBS and lysed with lysis buffer. RNA was isolated from the myocardial tissue using RNAeasy kit from Qiagen (Qiagen, Valencia, Calif.) according to the manufacturer's instructions. Isolated RNA from these samples was treated with DNase for 15 min at room temperature (Qiagen, Valencia, Calif.). 100 ng of DNA-free total poly-A tail RNA (mRNA) was first subjected to synthesis of cDNA using Oligo dT primers applying SuperScript III First-Strand Synthesis System from Invitrogen (Invitrogen, Carlsbad, Calif.) according to the manufacturer's instructions. cDNA from 20 ng of total RNA was then subjected to real-time RT-PCR using predesigned taqman probe primers specific for rat Scn5a (Rn00565502), Kcnip2 (Kchip2; Rn01411451) and kcnd2 (Rn01456260) (Applied Biosystems, California). No-template controls and no-RT controls were run during each experiment to detect any RNA and/or DNA contamination. Results are expressed as fold expression of gene of interest normalized to GAPDH expression in the sample. Western blotting: Control and treated cardiac myocytes were washed in cold PBS, lysed directly in the modified loading buffer (25 mmol/l Tris.HCl; 150 mmol/l NaCl; 1 mmol/l EDTA; 4 mmol/l NaF; 2 mmol/l Sodium ortho-vanadate; 1% Triton X-100, protease inhibitor, 5% glycerol, 1% SDS, 0.05% bromophenol blue, 5% β mercaptoethanol) and sonicated. The lysate (20 μl) were then subjected SDS-PAGE as described earlier. The blots were incubated with rabbit pFOXO1 antibody, 1:500 (Cell Signaling) or rabbit GAPDH antibody, 1:5000 (Sigma-Aldrich, St. Louis, Mo.). Patch-clamp experiments: Whole-cell ionic currents were recorded from adult rat ventricular myocytes. All recordings were conducted at room temperature. Sodium current recordings were conducted in a low-sodium extracellular solution containing (in mM): NaCl, 10; MgCl2, 1; CaCl2, 1.8; CdCl2, 0.1; HEPES, 20; CsCl, 127.5; glucose, 11. The pipette solution contained (in mM): NaCl, 5; CsF, 135; EGTA, 10; MgATP, 5; HEPES, 5. To characterize the voltage dependence of the peak INa, single cells were held at −120 mV, and 200 msec voltage steps were applied from −90 to +30 mV in 5 mV increments. The interval between voltage steps was 3 sec. Voltage-dependence of inactivation was assessed by holding cells at various potentials from −160 to −40 mV followed by a 30 msec test pulse to −40 mV to elicit INa. […]

KCND2 = assay: qPCR mRNA expression; assay type: cell-based, rat; settings: 1 ng/ml, 72 hr
Method: as §2

KCNIP2 = assay: qPCR mRNA expression; assay type: cell-based, rat; settings: 1 ng/ml, 72 hr
Method: as §2

SCN5A = assay: qPCR mRNA expression; assay type: cell-based, rat
Method: as §2

FOXO1 = assay: Western blot of FOXO1 phosphorylation; assay type: cell-based, rat
Method: as §2, with “The blots were incubated with rabbit pFOXO1 antibody, 1:500 (Cell Signaling) or rabbit GAPDH antibody, 1:5000 (Sigma-Aldrich, St. Louis, Mo.).” left out, “All recordings were conducted at room temperature. Sodium current recordings were conducted in a low-sodium extracellular solution containing (in mM): NaCl, 10; MgCl2, 1; CaCl2, 1.8; CdCl2, 0.1; HEPES, 20; CsCl, 127.5; glucose, 11. The pipette solution contained (in mM): NaCl, 5; CsF, 135; EGTA, 10; MgATP, 5; HEPES, 5. To characterize the voltage dependence of the peak INa, single cells were held at −120 mV, and 200 msec voltage steps were applied from −90 to +30 mV in 5 mV increments. The interval between voltage steps was 3 sec.” left out

[4] = test system: adult sheep atrial fibroblasts; assay: Wound healing (migration) assay; assay type: cell-based; settings: Gal-3 10 μg/ml, days 0-2
Method: (§3) Wound healing experiments were performed to investigate if exogenous Gal-3 can increase myofibroblast migration in vitro (FIG. 3). Adult sheep atrial fibroblasts were cultured in 96-well plates until confluent. Before serum starvation, cells were stained with cell tracker dye and DAPI. A wound was created by scraping a semi-confluent monolayer of cells with a 1 ml pipette tip. Thereafter, cells underwent serum starvation in DMEM with 5% FBS for 6 hrs. Comparisons were made between untreated and Gal-3 treated (1 μg/ml or 10 μg ml) cells. The wound was imaged at 4 different locations at 3 different time points (days 0, 1 and 2). The size of the wound was quantified using the NIS element program by Nikon. […] Next, to investigate the effects of Gal-3 on myofibroblast proliferation, adult sheep atrial fibroblasts were treated with recombinant human Gal-3 (EMD chemicals, USA) for 24 hours in the presence of SFM. FM was included as a positive control. Cell proliferation was measured using cell proliferation reagent WST (Roche Diagnostics, USA). […] Such concentrations are in the same range used previously (Sharma et al., Circulation. 2004; 110:3121-3128) to investigate Gal-3 induced fibroblast proliferation in the cardiomyopathic heart.

[5] = test system: adult sheep atrial myofibroblasts; assay: Cell proliferation assay (WST reagent); assay type: cell-based; settings: Gal-3 1-30 μg/ml, 24 hours, SFM
Method: as §3

**Q.** For “TGF-β1: exogenous TGF-β1 cytokine (R and D systems, Minneapolis, Minn.)”, which “peak Ito” value ([1]; 1 ng/ml) is on record?
**A.** significantly reduced the peak Ito but to a much modest level

**Q.** And the Ito current density ([1]; 10 ng/ml, 60 mV)?
**A.** 12.6±0.98

**Q.** What about the “Ito current density, % of control levels” value ([1]; 10 ng/ml, 60 mV) of the same molecule?
**A.** 57%

**Q.** What about the “reduction of Ito current density” value ([1]; 10 ng/ml, +20 mV) of the same molecule?
**A.** 42%

**Q.** What about the APD30 ([2]; 10 ng/ml, BCL 1000 ms) of the same molecule?
**A.** 29.1 ± 5.6 ms

**Q.** What about the “APD30 times larger than control” value ([2]; 10 ng/ml, BCL 1000 ms) of the same molecule?
**A.** > 3.5 times

**Q.** What about the “APD / early afterdepolarizations” value ([2]; 50 ng/ml) of the same molecule?
**A.** APD was so prolonged that some cells early after depolarizations (EADs)

**Q.** What about the “more inward current compared to control medium” value ([3]; 1 ng/ml, at −40V (so in the source)) of the same molecule?
**A.** about 40%

**Q.** What about the “EC50 for increase of peak inward INa density” value ([3]; 72 hours, 0.001-1.0 ng/ml) of the same molecule?
**A.** 0.007 ng/mL

**Q.** And the “voltage dependence of activation (m∞) and inactivation (h∞)” value ([3]; 72 hr treatment)?
**A.** neither the m∞ nor the h∞ curve was modified

**Q.** What about the “maximum INa increase” value ([3]; at 1 ng/ml (also seen at 10 ng/ml), 72 hours) of the same molecule?
**A.** about 40%

**Q.** And the “decrease of KCND2 expression with respect to control” value (KCND2)?
**A.** 50.6%

**Q.** What about the “reduction of KCNIP2 mRNA levels” value (KCNIP2) of the same molecule?
**A.** 77%

**Q.** And the “SCN5A transcript levels, fold increase” value (SCN5A; 1 ng/ml, 72 hr)?
**A.** 1.73±0.26 fold

**Q.** And the “increase in phosphorylated FOXO1 vs control” value (FOXO1; 1 ng/ml)?
**A.** 67%

**Q.** And the “time of peak FOXO1 phosphorylation” value (FOXO1; 1 ng/ml)?
**A.** 15 min

**Q.** For “Gal-3: recombinant human Gal-3 (EMD chemicals, USA)”, which “rate of migration / wound healing” value [4] is on record?
**A.** significantly increased the rate of migration and promoted wound healing; also recorded: increases the rate of wound healing

**Q.** And the “proliferation (number) of adult sheep atrial myofibroblasts” value [5]?
**A.** increased the number of adult sheep atrial myofibroblasts in a concentration-dependent manner; also recorded: increases proliferation

**Q.** For `O=c1cc(N2CCOCC2)oc2c(-c3ccccc3)cccc12` [LY 29004, reference compound], which “TGF-β1 induced increase in SCN5A transcription” value (SCN5A; pretreated with PI3K inhibitor (10 μM, 30 min)) is on record?
**A.** failed to show increased SCN5A transcription

**Q.** What about the “phosphorylation of FOXO1 in TGF-β1 treated cells” value (FOXO1; pretreated with PI3K inhibitor) of the same molecule?
**A.** inhibited
